**Q.** With COc1ccc(N=Cc2cc(OC)c(OC)c(OC)c2)cc1 as the compound, how does the melting point read?
**A.** 78 to 86 °C

**Q.** With Nc1cc(Br)c(F)c(Cl)c1F as the compound, how does the melting point read?
**A.** 86 to 88 °C

**Q.** With C#CCC(Oc1cccc(C)c1C)C1=NCCN1 (stereo not given) as the compound, how does the melting point read?
**A.** 70 to 73 °C

**Q.** Which melting point does the source give for CCCOc1ccc(/C=C/C(=O)O)cc1-c1nc2c(CCC)nn(C)c2c(=O)[nH]1 here?
**A.** 229 to 230 °C

**Q.** For CCOC(=O)C(=O)N(CCO)N=Cc1ccccc1, which melting point is on record?
**A.** 96 to 98 °C

**Q.** For CCCCc1nc2c(N)nc3ccccc3c2n1CCCCNS(=O)(=O)Cc1ccccc1, which melting point is on record?
**A.** 197 to 200 °C

**Q.** For C=Cc1cc(O)cc2nc(-c3ccc(O)c(F)c3F)oc12, which melting point is on record?
**A.** 276 to 278 °C

**Q.** For CC(=O)Nc1ccc2c3c(cccc13)S(=O)(=O)N2CCCN1CC=C(c2ccccc2)CC1, which melting point is on record?
**A.** 178 °C

**Q.** For CSCCCCC(c1cc(F)ccc1F)S(=O)(=O)c1ccc(Cl)cc1 (stereo not given), which melting point is on record?
**A.** 103 to 106 °C

**Q.** For CC(=O)C1=C(O)C(=C(C)Nc2ccccc2)C(=O)OC1=O, which melting point is on record?
**A.** 184 to 186 °C

**Q.** For Cc1n[nH]c(COc2nn3c(-c4ccccc4)nnc3cc2-c2ccccc2)n1, which melting point is on record?
**A.** 233 to 235 °C

**Q.** For CCOC(=O)C(=CC=C(C)C=CC=C(C)C=CC1=C(C)CCCC1(C)C)CC, which melting point is on record?
**A.** 164 to 165 °C

**Q.** With CCOC(=O)c1nc2c(Cl)nc3cc(C(F)(F)F)ccc3n2c1CBr as the compound, how does the melting point read?
**A.** 196 to 198 °C

**Q.** Which melting point does the source give for CN1C(=S)NN2CCCC21c1ccccc1 (stereo not given) here?
**A.** 148 to 151 °C

**Q.** Which melting point does the source give for O=C1[C@@H]2C[C@H](OCc3ccc4cnccc4c3)CN2C(=O)N1c1cc(Cl)cc(Cl)c1 here?
**A.** 144 °C

**Q.** For COC(=O)[C@@H]1CCCC[C@H]1C[C@@H](O)[C@H](Cc1ccccc1)NC(=O)OC(C)(C)C, which melting point is on record?
**A.** 127 to 128 °C

**Q.** For CCOc1nn(Cc2ccc(Cl)cc2Cl)cc1CCCOc1cc(CCC(=O)O)n(Cc2ccccc2)n1, which melting point is on record?
**A.** 84 to 85 °C

**Q.** With O=C(N[C@H](Cc1ccc(F)cc1)[C@@H](O)c1ccc(F)cc1)c1cccc2ccccc12 (racemic) as the compound, how does the melting point read?
**A.** 199 to 200 °C

**Q.** Which melting point does the source give for O=[N+]([O-])c1ccc2ccn(CCCCl)c2c1 here?
**A.** 85 to 87 °C

**Q.** For NCC#Cc1cnc2c(c1)N(Cc1cc(Cl)ccc1Cl)CCN2, which melting point is on record?
**A.** 183 °C

**Q.** For CC(C)(C)OC(=O)N1CC[C@@H](CN(Cc2ccccc2)Cc2ccccc2)[C@H](O)C1 (relative stereo), which melting point is on record?
**A.** 133 °C

**Q.** For O=C(N[C@@H](CO)C(=O)NCCCOC1CCCCC1)c1ccc(C(=O)c2cccnc2)cc1, which melting point is on record?
**A.** 57 to 62 °C

**Q.** Which melting point does the source give for COc1cc(F)c(C(=O)Cc2c(Cl)cncc2Cl)cc1OC1CCCC1 here?
**A.** 116 °C

**Q.** With O=C1c2cccnc2N(c2ccccc2)C(=O)C12CCCCO2 (stereo not given) as the compound, how does the melting point read?
**A.** 213 to 215 °C

**Q.** For CCn1c(-c2ccc(Cl)c(S(=O)(=O)N(C)C)c2)csc1=Nc1ccccc1C, which melting point is on record?
**A.** 164 to 166 °C

**Q.** With CC(=O)OC1CCC2C3C(Sc4ccc(O)cc4)C(=O)c4cc(O)ccc4C3CCC12C (stereo not given) as the compound, how does the melting point read?
**A.** 150 to 155 °C

**Q.** For CSc1nc(C)cc(O)n1, which melting point is on record?
**A.** 149 °C

**Q.** For c1cnc2c(c1)-c1ncccc1C2(Cc1ccncc1)Cc1ccncc1, which melting point is on record?
**A.** 133 to 137 °C

**Q.** With CC(=O)OC1CSC(Oc2cccnc2Br)C(OC(C)=O)C1OC(C)=O (stereo not given) as the compound, how does the melting point read?
**A.** 161 °C

**Q.** With CC(C)n1nnnc1-c1ccc(N)c([N+](=O)[O-])c1 as the compound, how does the melting point read?
**A.** 126 to 128 °C

**Q.** For CS(=O)(=O)c1ccc(-c2cc(CO)nn2C2CCCCCC2)cc1, which melting point is on record?
**A.** 116 to 118 °C

**Q.** Which melting point does the source give for CN1CC(c2cc3ccccc3o2)CC1=O (stereo not given) here?
**A.** 73 °C

**Q.** Which melting point does the source give for CNC(Cc1ccccc1NC(=O)C(C)(C)C)c1ccsc1 (stereo not given) here?
**A.** 81 to 84 °C

**Q.** Which melting point does the source give for OCCOc1ccc(-c2nc(-c3ccccc3)nc(-c3ccccc3)n2)c(O)c1 here?
**A.** 195 °C

**Q.** For S=C1Nc2c(Cl)cccc2CS1, which melting point is on record?
**A.** 125 to 126 °C

**Q.** For CC(C)(c1ccc2ncccc2c1)n1nnc2ccc(-c3cn[nH]c3)nc21, which melting point is on record?
**A.** 218 to 220 °C

**Q.** Which melting point does the source give for O=C1CCC(c2ccc(CCN3CCN(c4ncccn4)CC3)cc2)N1 (stereo not given) here?
**A.** 182 to 183 °C

**Q.** Which melting point does the source give for COCC#CC1=CC(C)(C)Oc2c(OC)cc(Cc3cnc(N)nc3N)cc21 here?
**A.** 236 to 237 °C

**Q.** Which melting point does the source give for CCOC(=O)ON=C(N)c1cccc(Oc2ccc3c(c2)S(=O)(=O)N=C2CCCN23)c1 here?
**A.** 101 to 105 °C

**Q.** For COc1cccc2c(CN3CC=C(CCc4ccccc4)CC3)c[nH]c12, which melting point is on record?
**A.** 131 to 133 °C

**Q.** For Cc1ccccc1CNc1cc(Br)cc2c1nc(C)n2C, which melting point is on record?
**A.** 128 to 129 °C

**Q.** Which melting point does the source give for C#CCN1CCCc2ccc(OC(=O)Nc3ccccc3C)cc21 here?
**A.** 96 °C

**Q.** With CCCc1nn(C)c2c(=O)[nH]c(-c3cc(NS(C)(=O)=O)ccc3OCC)nc12 as the compound, how does the melting point read?
**A.** 205 to 206 °C

**Q.** Which melting point does the source give for Cc1cc(C)cc(NC(=O)[C@@H](C)NC(=O)c2cc([N+](=O)[O-])c(Cl)c([N+](=O)[O-])c2)c1 here?
**A.** 202 to 204 °C

**Q.** Which melting point does the source give for Cc1ccc(N)cc1C(=O)O here?
**A.** 142 to 144 °C

**Q.** Which melting point does the source give for COC(=O)C(c1ccc(Br)cc1)(c1ccc(Br)cc1)c1ncc[nH]1 here?
**A.** 135 °C

**Q.** Which melting point does the source give for O=C(Nc1cc(S(=O)(=O)N(CCO)CCO)sc1Cl)c1cnn2c(C(F)F)cc(-c3ccc(C(F)(F)F)cc3)nc12 here?
**A.** 216 °C

**Q.** For O=C(O)Cn1c(=O)n(CCCCN2CCC(OC(c3ccccc3)c3ccccc3)CC2)c(=O)c2ccccc21, which melting point is on record?
**A.** 153 to 155 °C

**Q.** For CC(=O)N[C@H]1CC[C@H](CCN2CCC(c3cccc4c3CCO4)CC2)CC1, which melting point is on record?
**A.** 183 °C

**Q.** Which melting point does the source give for CCOC(=O)c1nnnn1Cc1ccccc1 here?
**A.** 58 to 61 °C

From a melting point compilation (Tetko et al.; mined from patent text by program, amines drawn as free bases though some values may be those of a salt)
